pIC50: −log10 of the molar value.
Test system: firefly luciferase activity
Assay: Dual-Glo firefly/renilla luciferase reporter assay in cells
Format: cell-based
Details: 24 h, read-out: Firefly Luciferase IC50 (μM)

| Structure (SMILES) | IC50 [µM] |
| --- | --- |
| CCOC(=O)Cn1nnc(-c2ccccc2Nc2ccc(F)cc2)n1 [Compound 7, ethyl 2-[5-[2-(4-fluoroanilino)phenyl]tetrazol-2-yl]acetate] | 0.1 to 1 |
| CCc1cccc(Nc2ccccc2-c2nnn(CCO)n2)c1 [Compound 17, 2-[5-[2-(3-ethylanilino)phenyl]tetrazol-2-yl]ethanol] | 0.1 to 1 |
| OCCn1nnc(-c2ccccc2Nc2ccc(SC(F)F)cc2)n1 [Compound 31, 2-[5-[2-[4-(difluoromethylsulfanyl)anilino]phenyl]tetrazol-2-yl]ethanol] | 0.1 to 1 |
| OCCn1nnc(-c2cc(OC(F)F)ccc2Nc2ccc(C(F)(F)F)cc2)n1 [Compound 260, 2-(5-(5-(difluoromethoxy)-2-((4-(trifluoromethyl)phenyl)amino)phenyl)-2H-tetrazol-2-yl)ethanol] | < 0.1 |
| CN(C)C(=O)Cn1nnc(-c2ccccc2Nc2ccc(C(F)(F)F)cc2)n1 [Compound 43, N,N-dimethyl-2-[5-[2-[4-(trifluoromethyl)anilino]phenyl]tetrazol-2-yl]acetamide] | 0.1 to 1 |
| OCCn1nnc(-c2cc(OC(F)(F)F)ccc2Nc2ccc(C(F)(F)F)cc2)n1 [Compound 261, 2-(5-(5-(trifluoromethoxy)-2-((4-(trifluoromethyl)phenyl)amino)phenyl)-2H-tetrazol-2-yl)ethanol] | 0.1 to 1 |
| CC(O)Cn1nnc(-c2ccccc2Nc2ccc(C(F)(F)F)cc2)n1 (stereo not shown) [Compound 105, 1-[5-[2-[4-(trifluoromethyl)anilino]phenyl]tetrazol-2-yl]propan-2-ol] | < 0.1 |
| CN(C)CCn1nnc(-c2ccccc2Nc2ccc(C(F)(F)F)cc2)n1 [Compound 50, 2-[2-[2-(dimethylamino)ethyl]tetrazol-5-yl]-N-[4-(trifluoromethyl)phenyl]aniline] | 0.1 to 1 |

Same assay, conditions: 24 hrs compound treatment, starting from 3 uM, 1:3 dilution, 10 points; read-out: Firefly Luciferase IC50

| pIC50 | Structure (SMILES) |
| --- | --- |
| 5.30 to 6.00 | COCCn1nnc(-c2ccccc2Nc2cccc(C(F)(F)F)c2)n1 [Compound 5, 2-[2-(2-methoxyethyl)tetrazol-5-yl]-N-[3-(trifluoromethyl)phenyl]aniline] |
| > 7.00 | C[C@H](O)[C@H](C)n1nnc(-c2ccccc2Nc2ccc(C(F)(F)F)cc2)n1 [Compound 192, (2S,3S)-3-(5-(2-((4-(trifluoromethyl)phenyl)amino)phenyl)-2H-tetrazol-2-yl)butan-2-ol] |
| > 7.00 | COCCn1nnc(-c2ccccc2Nc2ccc(C(F)(F)F)cc2)n1 [Compound 173, 2-(2-(2-methoxyethyl)-2H-tetrazol-5-yl)-N-(4-(trifluoromethyl)phenyl)aniline] |
| 5.30 to 6.00 | FC(F)(F)Oc1ccc(Nc2ccccc2-c2nnn(Cc3ccccn3)n2)cc1 [Compound 54, 2-(2-(pyridin-2-ylmethyl)-2H-tetrazol-5-yl)-N-(4-(trifluoromethoxy)phenyl)aniline] |
| 6.00 to 7.00 | FC(F)(F)c1ccc(Nc2ccccc2-c2nnn(C3CCNC3)n2)cc1 (stereo not shown) [Compound 227, 2-(2-(pyrrolidin-3-yl)-2H-tetrazol-5-yl)-N-(4-(trifluoromethyl)phenyl)aniline] |
| 6.00 to 7.00 | FC(F)(F)c1ccc(Nc2ccccc2-c2nnn(C3CCCOC3)n2)cc1 (stereo not shown) [Compound 120, 2-(2-tetrahydropyran-3-yltetrazol-5-yl)-N-[4-(trifluoromethyl)phenyl]aniline] |
| 6.00 to 7.00 | O=C(Cn1nnc(-c2ccccc2Nc2ccc(C(F)(F)F)cc2)n1)N1CCCC1 [Compound 45, 1-pyrrolidin-1-yl-2-[5-[2-[4-(trifluoromethyl)anilino]phenyl]tetrazol-2-yl]ethanone] |
| 6.00 to 7.00 | O=C1N[C@H](Cn2nnc(-c3ccccc3Nc3ccc(C(F)(F)F)cc3)n2)CO1 [Compound 158, (R)-4-((5-(2-((4-(trifluoromethyl)phenyl)amino)phenyl)-2H-tetrazol-2-yl)methyl)oxazolidin-2-one] |
| > 7.00 | NC(=O)OCCn1nnc(-c2ccccc2Nc2ccc(C(F)(F)F)cc2)n1 [Compound 124, 2-[5-[2-[4-(trifluoromethyl)anilino]phenyl]tetrazol-2-yl]ethyl carbamate] |
| > 7.00 | OCC(CO)n1nnc(-c2ccccc2Nc2ccc(C(F)(F)F)cc2)n1 [Compound 264, 2-(5-(2-((4-(trifluoromethyl)phenyl)amino)phenyl)-2H-tetrazol-2-yl)propane-1,3-diol] |
| 6.00 to 7.00 | FCCCn1nnc(-c2ccccc2Nc2ccc(C(F)(F)F)cc2)n1 [Compound 126, 2-[2-(3-fluoropropyl)tetrazol-5-yl]-N-[4-(trifluoromethyl)phenyl]aniline] |
| > 7.00 | OC1(Cn2nnc(-c3ccccc3Nc3ccc(C(F)(F)F)cc3)n2)CCC1 [Compound 169, 1-((5-(2-((4-(Trifluoromethyl)phenyl)amino)phenyl)-2H-tetrazol-2-yl)methyl)cyclobutanol] |
| 5.30 to 6.00 | FC(F)(F)Oc1ccc(Nc2ccccc2-c2nnn(Cc3ccncc3)n2)cc1 [Compound 53, 2-[2-(4-pyridylmethyl)tetrazol-5-yl]-N-[4-(trifluoromethoxy)phenyl]aniline] |
| 5.30 to 6.00 | OCCn1nnc(-c2ccccc2Nc2cc(Cl)c(Cl)c(Cl)c2)n1 [Compound 253, 2-(5-(2-((3,4,5-trichlorophenyl)amino)phenyl)-2H-tetrazol-2-yl)ethanol] |
| 5.30 to 6.00 | FC(F)(F)c1ccc(Nc2ccccc2-c2nnn(C3CNC3)n2)cc1 [Compound 221, 2-(2-(azetidin-3-yl)-2H-tetrazol-5-yl)-N-(4-(trifluoromethyl)phenyl)aniline] |
| 6.00 to 7.00 | O[C@@H]1CNC[C@H]1n1nnc(-c2ccccc2Nc2ccc(C(F)(F)F)cc2)n1 [Compound 233, (3R,4R)-4-(5-(2-((4-(trifluoromethyl)phenyl)amino)phenyl)-2H-tetrazol-2-yl)pyrrolidin-3-ol] |
| 5.30 to 6.00 | FC(F)(F)c1ccc(Nc2ccccc2-c2nnn(-c3cccnc3)n2)cc1 [Compound 165, 2-[2-(3-pyridyl)tetrazol-5-yl]-N-[4-(trifluoromethyl)phenyl]aniline] |
| 6.00 to 7.00 | OC1(Cn2nnc(-c3ccccc3Nc3ccc(C(F)(F)F)cc3)n2)CCNC1 (stereo not shown) [Compound 153, 3-((5-(2-((4-(trifluoromethyl)phenyl)amino)phenyl)-2H-tetrazol-2-yl)methyl)pyrrolidin-3-ol] |

| pIC50 | Structure (SMILES) |
| --- | --- |
| > 7.00 | COCC(C)n1nnc(-c2ccccc2Nc2ccc(C(F)(F)F)cc2)n1 (stereo not shown) [Compound 129, 2-(2-(1-methoxypropan-2-yl)-2H-tetrazol-5-yl)-N-(4-(trifluoromethyl)phenyl) Aniline] |
| 6.00 to 7.00 | OCCn1nnc(-c2ccccc2Nc2ccc(F)c(F)c2)n1 [Compound 25, 2-[5-[2-(3,4-difluoroanilino)phenyl]tetrazol-2-yl]ethanol] |
| > 7.00 | CC(CO)n1nnc(-c2ccccc2Nc2ccc(C(F)(F)F)cc2)n1 (stereo not shown) [Compound 125, 2-[5-[2-[4-(trifluoromethyl)anilino]phenyl]tetrazol-2-yl]propan-1-ol] |
| 5.30 to 6.00 | CC(=O)OC1(Cn2nnc(-c3ccccc3Nc3ccc(C(F)(F)F)cc3)n2)CN(C(C)=O)C1 [Compound 162, [1-acetyl-3-[[5-[2-[4-(trifluoromethyl)anilino]phenyl]tetrazol-2-yl]methyl]azetidin-3-yl]acetate] |
| 5.30 to 6.00 | Cn1nc(-c2ccccc2Nc2ccc(C(F)(F)F)cc2)nc1CCO [Compound 205, 2-(1-methyl-3-(2-((4-(trifluoromethyl)phenyl)amino)phenyl)-1H-1,2,4-triazol-5-yl)ethan-1-ol] |
| > 7.00 | CCOC(=O)Cn1cc(-c2ccccc2Nc2ccc(C(F)(F)F)cc2)cn1 [Compound 60, ethyl 2-(4-(2-((4-(trifluoromethyl)phenyl)amino)phenyl)-1H-pyrazol-1-yl)acetate] |
| 6.00 to 7.00 | OC1(Cn2nnc(-c3ccccc3Nc3ccc(C(F)(F)F)cc3)n2)CCCCC1 [Compound 133, 1-[[5-[2-[4-(trifluoromethyl)anilino]phenyl]tetrazol-2-yl]methyl]cyclohexanol] |
| 5.30 to 6.00 | CC(C)(C)OC(=O)N1CCCC(O)(Cn2nnc(-c3ccccc3Nc3ccc(C(F)(F)F)cc3)n2)C1 (stereo not shown) [Compound 147] |
| 6.00 to 7.00 | CO[C@H](C)[C@H](C)n1nnc(-c2ccccc2Nc2ccc(C(F)(F)F)cc2)n1 [Compound 211, 2-(2-((2S,3R)-3-methoxybutan-2-yl)-2H-tetrazol-5-yl)-N-(4-(trifluoromethyl)phenyl)aniline] |
| 6.00 to 7.00 | NCCn1cnc(-c2ccccc2Nc2ccc(C(F)(F)F)cc2)n1 [Compound 230, 2-(1-(2-aminoethyl)-1H-1,2,4-triazol-3-yl)-N-(4-(trifluoromethyl)phenyl)aniline] |
| > 7.00 | FC(F)(F)c1ccc(Nc2ccccc2-c2nnn(C3COC3)n2)cc1 [Compound 123, 2-[2-(oxetan-3-yl)tetrazol-5-yl]-N-[4-(trifluoromethyl)phenyl]aniline] |
| 5.30 to 6.00 | CS(=O)(=O)NCCn1nnc(-c2ccccc2Nc2ccc(C(F)(F)F)cc2)n1 [Compound 93, N-[2-[5-[2-[4-(trifluoromethyl)anilino]phenyl]tetrazol-2-yl]ethyl]methane Sulfonamide] |
| 6.00 to 7.00 | OCCn1nnc(-c2ccccc2Nc2ccc(Cl)c(Cl)c2)n1 [Compound 251, 2-(5-(2-((3,4-dichlorophenyl)amino)phenyl)-2H-tetrazol-2-yl)ethanol] |
| 6.00 to 7.00 | O=C(O)Cn1cc(-c2ccccc2Nc2ccc(C(F)(F)F)cc2)cn1 [Compound 61, 2-(4-(2-((4-(trifluoromethyl)phenyl)amino)phenyl)-1H-pyrazol-1-yl)acetic Acid] |
| > 7.00 | OCCn1nnc(-c2cc(C3CC3)ccc2Nc2ccc(C(F)(F)F)cc2)n1 [Compound 255, 2-(5-(5-cyclopropyl-2-((4-(trifluoromethyl)phenyl)amino)phenyl)-2H-tetrazol-2-yl)ethanol] |
| 6.00 to 7.00 | COC1CCCC1n1nnc(-c2ccccc2Nc2ccc(C(F)(F)F)cc2)n1 (stereo not shown) [Compound 214, 2-(2-(2-methoxycyclopentyl)-2H-tetrazol-5-yl)-N-(4-(trifluoromethyl)phenyl) Aniline] |
| > 7.00 | OCCn1nnc(-c2cc(F)ccc2Nc2ccc(C(F)(F)F)cc2)n1 [Compound 175, 2-[5-[5-fluoro-2-[4-(trifluoromethyl)anilino]phenyl]tetrazol-2-yl]ethanol] |

From patent publication US11186554B2, “Non-fused tricyclic compounds” (VIVACE THERAPEUTICS, INC., priority 2017, dated 2021)
